Assay [1] concerns L. acidophilus NCFM LBA1430 HPK mutant. Description: Growth curves with 0.3% of individual bile salts. The class given is cell-based, Lactobacillus acidophilus. The conditions noted are these: 0.3% bile salt. On the procedure:
Growth curve experiments were also performed using 0.3% of individual bile salts: taurocholic acid, taurodeoxycholic acid, taurochenodeoxycholic acid, glycocholic acid, glycodeoxycholic acid.

In assay [2] the test system is L. acidophilus HPK mutant (NCK1686). To be noted: log-phase cells. The protocol:
(§1) Log phase cells at an A600 of 0.25-0.3 (pH>5.8) from a 2% inoculum in MRS broth were centrifuged and resuspended in the same volume of NMS, or MRS containing 15 or 20% (v/v) ethanol. CFU/ml were determined at 30 minutes intervals by serial dilutions in 10% MRS and enumeration on MRS agar as described above.

The test system of assay [3] is L. acidophilus control NCK1398 (NCFM::lacL). To be noted: 20% ethanol, after 90 min, log-phase cells. The protocol:
as §1

Data on 2 molecules can be found in patent publication US7754868B2, “Nucleic acid encoding two-component sensing and regulatory proteins, antimicrobial proteins and uses therefor” (North Carolina State University, priority 2004, dated 2010).

Entries after “also recorded” stand apart in the source; their conditions may differ.

Regarding `C[C@H](CCC(=O)NCCS(=O)(=O)O)[C@H]1CC[C@H]2[C@@H]3CC[C@@H]4C[C@H](O)CC[C@]4(C)[C@H]3C[C@H](O)[C@]12C` [Sodium taurodeoxycholate], the “effect on growth of the HPK mutant compared to wild type” value in assay [1] is listed as “the only salt that affected the growth of the HPK mutant; also recorded: more inhibitory effect on the growth of the HPK mutant than other salts tested”.

`CCO` [ethanol]: the “survival, HPK mutant versus control” value in assay [2] (15% (v/v) ethanol) is “No differences were observed”. In addition, the reduction in survival was determined as 4 log in assay [2] (20% ethanol, after 90 min) and 1 log in assay [3].
